Read-outs that look alike come from different tables or passages of the source.
What was measured:
[1] = format: physicochemical; details: 2.1 h
Protocol: Approximately 50 mg (N,N-Diethylcarbamoyl)methyl methyl (2E)but-2-ene-1,4-dioate powder was spread into a thin layer in open quartz containers. The sample was then placed in an ICH2 Photoreactor (Luzchem Research Inc.) with 16 near-UV fluorescent lamps (Hitachi FL8BL-B) installed. The near-UV light (320-400 nm) power was 94.2 watt/m^2. The sample was taken out after 2.1 hours to achieve a light exposure of 200 watt hour/m^2. The sample was prepared and analyzed the same way as described in Example 1. The amount of compound (1) found was 10.3 wt %.

[2] = format: physicochemical; details: 53 h, 0.1 mg/mL, pH 4
Protocol: A quartz flask containing approximately 20 mL of 0.1 mg/mL (N,N-diethylcarbamoyl)methyl methyl (2E)but-2-ene-1,4-dioate in 50 mM pH 4.0 citrate buffer was placed in an ICH2 Photoreactor (Luzchem Research Inc.) with 16 cool white fluorescent lamps (F8T5/CW-8 Watt) installed. The light power was 22.8×10^3 lux with low level of near UV light (320-400 nm) at 2.2 watt/m^2. The sample was taken out after 53 hours to achieve a light exposure of 1.2 million lux hours.
To quantify the photodegratation of the (N,N-diethylcarbamoyl)methyl methyl (2E)but-2-ene-1,4-dioate powder, the presence of (N,N-diethylcarbamoyl)methyl methyl (2Z)but-2-ene-1,4-dioate (“compound (2)”) was quantified. The structure for compound (2) is shown below:
The sample was analyzed using the same HPLC method as described in Example 1. The amount of compound (2) found was 22.3 wt %.

[3] = format: physicochemical; details: 53 h
Protocol: Approximately 50 mg (N,N-diethylcarbamoyl)methyl methyl (2E)but-2-ene-1,4-dioate powder was spread into a thin layer (˜1 mm) in open quartz containers. The sample was then placed in an ICH2 Photoreactor (Luzchem Research Inc.) with 16 cool white fluorescent lamps (F8T5/CW-8 Watt) installed. The light power was 22.8×10^3 lux with low level of near UV light (320-400 nm) at 2.2 watt/m^2. The sample was taken out after 53 hours to achieve a light exposure of 1.2 million lux hours. The sample solution was prepared at 0.2 mg/mL in diluent (water/acetonitrile/H3PO4 (80/20/0.05 by volume)).
To quantify the photodegratation of the (N,N-diethylcarbamoyl)methyl methyl (2E)but-2-ene-1,4-dioate powder, the presence of (N,N-diethylcarbamoyl)methyl (1S,3S,2R,4R)-2-{[(N,N-diethylcarbamoyl)methyl]oxycarbonyl}-3,4-bis(methoxycarbonyl)cyclobutanecarboxylate (“compound (1)”) was quantified. The structure of compound (1) is shown below:
The amount (weight percent) of compound (1) in the sample was determined by reverse phase HPLC using a C18 column and a 30-minute gradient method according to Table 1 where Mobile Phase A is water/0.05% H3PO4 and Mobile Phase B is water/acetonitrile/H3PO4 (10/90/0.05 by volume) with UV detection at 210 nm. The amount of compound (1) found was 29.0 wt %.

amount of compound (1) found (photodegradant) [1]: 10.3 wt %
amount of compound (2) found (2Z isomer photodegradant) [2]: 22.3 wt %
amount of compound (1) found (photodegradant) [3]: 29.0 wt %
SMILES: CCN(CC)C(=O)COC(=O)/C=C/C(=O)OC [(N,N-Diethylcarbamoyl)methyl methyl (2E)but-2-ene-1,4-dioate]
